# “Also recorded” adds a separate entry of the source.
# Columns and labels:
# [1] = tested on: mice with plantar incision; assay: Postoperative pain model (plantar incision), von Frey paw withdrawal; settings: for effect on postoperative mechanical hypersensitivity: post-operative treatment
# Protocol: (§1) Animal models of pain. To model postoperative pain in mice, plantar incision was performed under isoflurane anesthesia. Specifically, a 4-8 mm incision was made through the skin, fascia, and muscle of the plantar side of one hind paw, longitudinally starting from the proximal edge of the heel. The skin was apposed with sutures (Fine Science Tools, Foster City, CA). The suture was removed at the end of postoperative day 2. To model neuropathic pain in mice, a surgery was performed to ligate the fifth lumbar (L5) spinal nerve (spinal nerve ligation, SNL).
# (§2) Behavioral testing. Mechanical pain sensitivity after plantar incision or SNL was assessed by measuring paw withdrawal behaviors in response to von Frey filament (VFF) probing. A mouse was placed in a plastic chamber on top of a mesh screen platform. The VFF of 0.98 mN was applied perpendicularly to the hind paw. […] The percent of withdrawal responses out of the ten trials was recorded.
# (§3) Statistical analysis. We used a generalized linear mixed model to analyze the number of withdrawals out of 10 trials (binomial distribution) repeatedly measured at multiple time points (AR1 covariance structure) with random intercepts for subject (i.e., mouse) variances. Degrees of freedom were allowed to vary across tests by Satterthwaite approximation.
# human hepatic microsomes = settings: pooled human liver microsomes, 50-200 μM substrate, 20 min, 37° C.
# Protocol: The reaction was incubated for 20 min at 37° C. and terminated by the addition of 1.2 mL of cold acetonitrile.
# Analytical method: An LC-MS/MS method for the quantification of EDDP, d3-EDDP and d6-EDDP was developed and validated. The samples were analyzed with an API 4000 triple quadrupole mass spectrometer coupled with an Agilent HPLC 1200 system (Applied Biosystems, Foster City, CA). […] Separation of EDDP, d3-EDDP and d6-EDDP was achieved by a Waters Symmetry C18 HPLC column at 45° C.
# [2] = tested on: mice with spinal nerve ligation (SNL); assay: Neuropathic pain model (spinal nerve ligation, SNL), von Frey paw withdrawal
# Protocol: as §1, §2, §3
# [3] = Tissue distribution after single i.v. injection in male CD-1 mice; settings: for rank order of the exposure of the organs to the parent drug: i.v. administration
# naïve mice = assay: Abuse liability, conditioned place preference (CPP) paradigm; assay type: in vivo, mouse; settings: 2-day conditioning
# Protocol: Experimental approaches. […] Specifically, one day after measuring natural place preference, vehicle was be given in the morning, and the mouse was placed in its preferred chamber for 20 min. In the afternoon, test drugs were given, and the mouse was placed in its non-preferred chamber for 20 min. This conditioning procedure was repeated 2 times. One day after the last conditioning session, CPP for the drug-paired chamber was measured for 20 min.
# Swiss mice = settings: intraperitoneally (i.p.); cited from earlier work
# [4] = Plasma pharmacokinetics after single i.v. injection in male CD-1 mice; settings: parent drug in plasma, 2.0 mg/kg i.v.
# [5] = 3 mg/kg i.p., once daily for 4 days
compound,measurement,setting,value
[2H]C([2H])([2H])CC(=O)C(CC(C)N(C([2H])([2H])[2H])C([2H])([2H])[2H])(c1ccccc1)c1ccccc1 (racemic) [d9-methadone],"postoperative mechanical hypersensitivity vs methadone-treated mice, next day","[1]; intra-operative treatment, 3 mg/kg i.p.",no difference
same,"postoperative mechanical hypersensitivity vs methadone-treated mice, day of surgery (2 hr, 4 hr)","[1]; intra-operative treatment, 3 mg/kg i.p. before plantar incision",lower postoperative mechanical hypersensitivity
same,development of analgesic tolerance,"[1]; once daily for 4 days, 3 mg/kg i.p.",no development of the apparent analgesic tolerance
same,effect on postoperative mechanical hypersensitivity,[1]; [5],alleviated hypersensitivity after each systemic injection
same,"Cohen's d, % withdrawals before and after treatment","[1]; postoperative treatment, paired comparison",> 20
same,"Cohen's d between methadone and d9-methadone groups, % of withdrawals 4 hours post-incision",[1]; preliminary intra-operative treatment,2.1
same,biotransformation (N-demethylation) rate compared to the non-deuterated substrate,human hepatic microsomes,further decreased the rate
same,effect on neuropathic pain (tactile allodynia),[2]; 3 mg/kg i.p. once daily for 3 days after SNL,effectively alleviated this neuropathic pain after each injection; also recorded: effectively inhibited this neuropathic pain after each injection
same,development of analgesic tolerance,"[2]; once daily for 3 days, 3 mg/kg i.p.",no development of the apparent analgesic tolerance
same,rank order of the exposure of the organs to the parent drug,[3],lungs>kidneys≈liver>spleen>heart>brain
same,Kp,"[3]; male, CD-1, mouse, in vivo, iv, 2 mg/kg",0.35 ± 0.12
same,conditioned place preference for the drug-paired chamber,naïve mice,did not develop conditioned place preference; also recorded: did not develop CPP; also recorded: did not show any apparent conditioned place preference
"CCC(=O)C(CC(C)N(C)C)(c1ccccc1)c1ccccc1 (racemic) [methadone, 6-(dimethylamino)-4,4-diphenylheptan-3-one]",effect on postoperative mechanical hypersensitivity,[1]; [5],unable to reduce
same,LD50,Swiss mice,41 mg/kg
same,rank order of the exposure of the organs to the parent drug,[3],kidneys≈lungs>spleen>liver>heart>brain
same,AUC0-8 h,[4],414 ± 67 ng·h/mL
same,AUC0-∞,[4],436 ± 75 ng·h/mL
same,Tmax,[4],0.08 ± 0^ h
same,Cmax,[4]; mean ± s.d.,521 ± 55 ng/mL
same,conditioned place preference for the drug-paired chamber,naïve mice,developed CPP; also recorded: relatively weaker conditioned place preference
"CCC1=[N+](C)C(C)CC1(c1ccccc1)c1ccccc1 (stereo not drawn) [EDDP, 2-ethylidine-1,5-dimethyl-3,3-diphenylpyrrolidine]",rank order of the exposure of the organs to the metabolite,[3]; i.v. administration of the parent drug,lungs>liver>kidney≈heart>spleen
"C=CC[N+]1(C)CC[C@]23c4c5ccc(O)c4O[C@H]2C(=O)CC[C@@]3(O)[C@H]1C5 (stereo partly drawn) [NLXM, naloxone methiodide, reference compound]",effect of NLXM on the relief of postoperative pain by d9-methadone,[1]; NLXM 10 mg/kg i.p. 30 minutes before d9-methadone,completely blocked the effect of d9-methadone
"[2H]C([2H])([2H])CC(=O)C(CC(C)N(C)C)(c1ccccc1)c1ccccc1 (stereo not drawn) [d3-methadone, reference compound]",biotransformation (N-demethylation) rate compared to the non-deuterated substrate,human hepatic microsomes,significantly decreased the biotransformation
CN1CC[C@]23c4c5ccc(O)c4O[C@H]2[C@@H](O)C=C[C@H]3[C@H]1C5 [morphine],conditioned place preference for the drug-paired chamber,naïve mice,spent significantly more time in the bright chamber; also recorded: developed CPP

# Source: patent US12590054B2 (Board of Regents, The University of Texas System, priority 2021, dated 2026)
